# Test results reported in patent publication US20250108001A1, “TOPICAL OCULAR ADMINISTRATION OF AMBROXOL FOR OCULAR PAIN” (NeuVision Development LLC, priority 2022, published 2025).
# Legend:
# rat NOP models = assay: Rat eye-wipe assay, Epi-off ocular pain model, 2M NaCl challenge; assay type: in vivo
# From the text: With minor modification of established rat NOP models, ocular pain was created by removing corneal epithelium (Epi-off) under general anesthesia. 2M NaCl saline (in contrast to 5M NaCl used in previous studies) was used to trigger peripheral neuronal excitement in response to hyperosmolarity while minimizing the potential inherent irritancy to the cornea from 5M NaCl. Then, one hour was given to each rat to allow complete recovery from anesthesia before proceeding to subsequent study steps. […] Due to its short duration of action, a proparacaine group was not included in this study (FIG. 2). The rat eye-wipe assay is an established animal behavioral and neurophysiological tool for the assessment of corneal sensitivity to noxious stimuli (Price T J, et al., Br. J. Pharmacol.). Increased corneal sensitivity was shown in male rats following lacrimal gland excision which correlates with eye wiping behaviors in response to hypertonic saline (5M NaCl) (Meng I D, et al., Invest. Ophthalmol. Vis. Sci. 2015).
# Nav1.8 nociceptor = Nav1.8 nociceptor (Homo sapiens, UniProt Q9Y5Y9); conditions: versus lidocaine; cited from earlier work
# Nav1.7 nociceptor = Nav1.7 nociceptor (Homo sapiens, UniProt Q15858); conditions: versus lidocaine; cited from earlier work
# eyes of rats = assay: Corneal sensation by Cochet-Bonnet esthesiometer after one topical drop in rats; conditions: rat eye; for minimum total corneal sensation preserved: at maximal effect (5-15 minutes), tactile sensation
# cornea = conditions: topical 0.1%, humans; cited from earlier work
# [1] = single drop 0.5% ambroxol, Epi-off rats, 2M NaCl
# [2] = 0.3% and 0.5% ambroxol HCl solutions
# Sequence of Nav1.8 nociceptor (Q9Y5Y9 whole entry): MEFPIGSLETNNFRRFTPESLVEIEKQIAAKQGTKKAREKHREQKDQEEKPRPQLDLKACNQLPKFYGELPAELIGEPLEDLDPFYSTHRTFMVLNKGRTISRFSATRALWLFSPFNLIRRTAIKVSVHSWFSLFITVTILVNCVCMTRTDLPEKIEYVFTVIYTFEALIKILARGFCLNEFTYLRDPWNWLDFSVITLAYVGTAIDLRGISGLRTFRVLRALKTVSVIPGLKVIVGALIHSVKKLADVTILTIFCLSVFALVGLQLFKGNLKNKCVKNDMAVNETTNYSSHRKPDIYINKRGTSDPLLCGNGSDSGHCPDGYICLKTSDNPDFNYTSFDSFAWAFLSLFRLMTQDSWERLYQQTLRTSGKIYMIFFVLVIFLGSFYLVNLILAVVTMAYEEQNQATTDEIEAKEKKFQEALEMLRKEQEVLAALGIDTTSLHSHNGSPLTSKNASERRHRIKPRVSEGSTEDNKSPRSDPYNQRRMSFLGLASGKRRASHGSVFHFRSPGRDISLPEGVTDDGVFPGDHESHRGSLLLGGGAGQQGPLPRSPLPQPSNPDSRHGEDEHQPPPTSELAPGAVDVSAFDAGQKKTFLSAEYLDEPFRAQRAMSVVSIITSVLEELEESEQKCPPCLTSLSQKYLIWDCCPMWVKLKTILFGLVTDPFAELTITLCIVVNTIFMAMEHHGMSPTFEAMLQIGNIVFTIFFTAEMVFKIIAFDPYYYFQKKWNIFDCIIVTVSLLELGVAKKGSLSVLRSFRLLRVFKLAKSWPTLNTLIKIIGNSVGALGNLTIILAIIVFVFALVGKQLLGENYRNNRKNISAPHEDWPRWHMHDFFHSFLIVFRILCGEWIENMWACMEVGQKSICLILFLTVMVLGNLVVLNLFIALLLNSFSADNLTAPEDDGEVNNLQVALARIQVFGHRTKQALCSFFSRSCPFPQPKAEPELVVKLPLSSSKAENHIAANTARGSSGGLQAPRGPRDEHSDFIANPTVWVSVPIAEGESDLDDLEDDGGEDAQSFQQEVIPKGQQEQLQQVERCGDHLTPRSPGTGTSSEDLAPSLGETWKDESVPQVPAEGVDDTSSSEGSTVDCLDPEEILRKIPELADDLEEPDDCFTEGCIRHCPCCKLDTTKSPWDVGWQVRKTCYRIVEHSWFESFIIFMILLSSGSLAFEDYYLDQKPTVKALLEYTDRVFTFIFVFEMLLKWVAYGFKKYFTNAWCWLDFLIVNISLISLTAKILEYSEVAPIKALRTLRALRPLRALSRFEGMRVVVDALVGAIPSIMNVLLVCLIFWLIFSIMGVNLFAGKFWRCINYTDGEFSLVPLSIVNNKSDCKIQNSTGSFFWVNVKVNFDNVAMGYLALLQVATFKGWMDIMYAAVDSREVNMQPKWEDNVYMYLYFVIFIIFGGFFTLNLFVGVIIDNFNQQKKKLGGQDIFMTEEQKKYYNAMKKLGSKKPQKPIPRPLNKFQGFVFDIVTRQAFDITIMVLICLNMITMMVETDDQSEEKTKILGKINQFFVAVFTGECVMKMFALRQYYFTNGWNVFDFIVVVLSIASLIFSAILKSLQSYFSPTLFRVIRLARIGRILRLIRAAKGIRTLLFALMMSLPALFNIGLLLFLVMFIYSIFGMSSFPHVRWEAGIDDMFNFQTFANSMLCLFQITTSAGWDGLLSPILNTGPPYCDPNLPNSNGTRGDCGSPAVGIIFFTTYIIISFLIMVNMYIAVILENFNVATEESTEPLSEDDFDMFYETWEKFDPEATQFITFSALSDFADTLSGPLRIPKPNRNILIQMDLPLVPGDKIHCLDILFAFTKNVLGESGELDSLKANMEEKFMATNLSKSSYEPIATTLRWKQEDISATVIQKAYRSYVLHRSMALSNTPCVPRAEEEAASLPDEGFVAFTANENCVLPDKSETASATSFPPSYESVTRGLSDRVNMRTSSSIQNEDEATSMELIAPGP
# Sequence of Nav1.7 nociceptor (Q15858 whole entry): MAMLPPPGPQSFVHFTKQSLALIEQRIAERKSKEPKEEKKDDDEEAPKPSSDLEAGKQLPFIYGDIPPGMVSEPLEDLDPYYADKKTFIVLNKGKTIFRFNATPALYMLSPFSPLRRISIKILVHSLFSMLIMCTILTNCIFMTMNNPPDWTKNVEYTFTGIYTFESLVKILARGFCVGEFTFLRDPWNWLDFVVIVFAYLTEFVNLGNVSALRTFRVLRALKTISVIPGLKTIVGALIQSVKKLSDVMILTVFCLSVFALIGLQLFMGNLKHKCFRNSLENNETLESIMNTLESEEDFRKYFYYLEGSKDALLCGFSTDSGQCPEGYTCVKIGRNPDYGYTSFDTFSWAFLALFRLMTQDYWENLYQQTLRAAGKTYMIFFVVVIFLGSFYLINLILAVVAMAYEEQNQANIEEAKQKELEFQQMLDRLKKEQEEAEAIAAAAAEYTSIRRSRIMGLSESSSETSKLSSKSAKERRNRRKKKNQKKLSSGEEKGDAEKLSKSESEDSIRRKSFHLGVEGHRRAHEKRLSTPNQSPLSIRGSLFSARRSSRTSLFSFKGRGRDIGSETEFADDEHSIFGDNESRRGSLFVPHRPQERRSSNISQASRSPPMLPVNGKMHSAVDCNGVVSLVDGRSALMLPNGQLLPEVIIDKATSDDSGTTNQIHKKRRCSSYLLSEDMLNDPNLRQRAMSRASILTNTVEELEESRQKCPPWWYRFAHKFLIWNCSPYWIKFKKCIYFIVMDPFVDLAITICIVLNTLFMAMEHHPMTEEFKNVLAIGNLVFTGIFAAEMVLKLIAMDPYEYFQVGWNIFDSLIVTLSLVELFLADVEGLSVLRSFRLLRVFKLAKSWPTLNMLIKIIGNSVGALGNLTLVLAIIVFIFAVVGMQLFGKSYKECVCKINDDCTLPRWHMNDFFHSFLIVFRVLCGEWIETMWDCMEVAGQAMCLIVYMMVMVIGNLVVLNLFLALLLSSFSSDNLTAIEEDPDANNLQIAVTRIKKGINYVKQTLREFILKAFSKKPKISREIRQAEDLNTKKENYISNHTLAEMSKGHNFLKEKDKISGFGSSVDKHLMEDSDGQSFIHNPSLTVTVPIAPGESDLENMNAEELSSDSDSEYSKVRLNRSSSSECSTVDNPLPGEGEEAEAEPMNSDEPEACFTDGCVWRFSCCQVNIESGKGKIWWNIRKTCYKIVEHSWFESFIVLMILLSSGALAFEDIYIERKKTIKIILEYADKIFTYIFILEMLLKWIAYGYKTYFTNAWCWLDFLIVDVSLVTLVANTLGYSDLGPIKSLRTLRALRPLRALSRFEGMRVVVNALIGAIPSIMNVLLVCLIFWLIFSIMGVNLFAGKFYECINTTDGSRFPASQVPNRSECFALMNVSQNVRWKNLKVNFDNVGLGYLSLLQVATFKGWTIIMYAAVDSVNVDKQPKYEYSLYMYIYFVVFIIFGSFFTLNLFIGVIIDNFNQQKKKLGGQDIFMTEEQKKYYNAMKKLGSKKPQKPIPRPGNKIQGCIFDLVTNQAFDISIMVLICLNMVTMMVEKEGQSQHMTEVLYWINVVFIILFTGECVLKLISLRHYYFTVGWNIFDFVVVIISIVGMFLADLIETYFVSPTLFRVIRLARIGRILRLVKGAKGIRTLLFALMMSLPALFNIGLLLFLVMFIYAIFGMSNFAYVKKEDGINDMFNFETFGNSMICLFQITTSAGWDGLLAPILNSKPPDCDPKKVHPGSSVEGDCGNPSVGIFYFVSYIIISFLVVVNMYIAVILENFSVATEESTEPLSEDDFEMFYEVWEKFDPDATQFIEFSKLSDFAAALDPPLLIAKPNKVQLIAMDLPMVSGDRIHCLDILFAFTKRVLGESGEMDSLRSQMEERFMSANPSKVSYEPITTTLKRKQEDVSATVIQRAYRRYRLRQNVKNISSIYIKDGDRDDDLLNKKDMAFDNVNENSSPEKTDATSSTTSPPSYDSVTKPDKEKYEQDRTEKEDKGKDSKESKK
compound,measurement,setting,value
"Nc1c(Br)cc(Br)cc1CN[C@H]1CC[C@H](O)CC1 [ambroxol, trans-4-(2-Amino-3,5-dibrombenzylamino)-cyclohexanol]",time of maximal effect in eye-wipe assay,"rat NOP models; 0.5% ambroxol-containing formulation, after administration",up to 30 min
same,duration of reduction in eye wiping count/min,rat NOP models; [1],at least 4 hours
same,sensitivity to hyperosmolarity at the ocular surface,rat NOP models; [1],obviously preserved
same,eye wiping count/min in response to 2M NaCl,"rat NOP models; single drop 0.5% ambroxol, Epi-off rats, versus carrier buffer control",significant reduction
same,potency in binding the Nav1.8 nociceptor relative to lidocaine,Nav1.8 nociceptor,40 times
same,potency of Nav1.8 block relative to lidocaine,Nav1.8 nociceptor,approximately 40 times
same,binding affinity for the Nav1.7 nociceptor relative to lidocaine,Nav1.7 nociceptor,same level
same,minimum total corneal sensation preserved,eyes of rats; 0.3% ambroxol HCl solution,≥ 15%
same,duration of drug action on corneal sensation,eyes of rats; [2],about 4 hours
same,time of maximal effect on corneal sensation,eyes of rats; [2],5 to 15 min
same,minimum total corneal sensation preserved,eyes of rats; 0.5% ambroxol HCl solution,≥ 15%
O=C(O)Cc1ccccc1Nc1c(Cl)cccc1Cl [diclofenac],cornea anesthetic effect,cornea,does not have clinically significant cornea anesthetic effect
CCCOc1ccc(C(=O)OCCN(CC)CC)cc1N [proparacaine],change in eye wiping counts before (Epi-on) and after surgery (Epi-off),"rat NOP models; 0.5% proparacaine HCl, at its maximal effect (5 min), data not shown",no significant change
same,corneal sensor network block (FIG. 1),eyes of rats; 0.5% proparacaine,completely blocked
